# Assay results reported in US8143254B2, “Methods for modulating ion channels” (Cornell Research Foundation, Inc., priority 2005, dated 2012).
# Assays:
# [1] = target: T1, Kv2.1 (Rattus norvegicus, UniProt P15387); test: Two-electrode voltage clamp (TEVC) of Xenopus oocytes expressing Kv2.1, bath-applied compound; type: cell-based; conditions: for effect on Kv2.1 currents: 1 mM, bath applied
# T1 construct: expressed in transfected cells; host or cells: Xenopus laevis oocytes (cRNA injection, pGA1 vector)
# T1 sequence (P15387 whole entry): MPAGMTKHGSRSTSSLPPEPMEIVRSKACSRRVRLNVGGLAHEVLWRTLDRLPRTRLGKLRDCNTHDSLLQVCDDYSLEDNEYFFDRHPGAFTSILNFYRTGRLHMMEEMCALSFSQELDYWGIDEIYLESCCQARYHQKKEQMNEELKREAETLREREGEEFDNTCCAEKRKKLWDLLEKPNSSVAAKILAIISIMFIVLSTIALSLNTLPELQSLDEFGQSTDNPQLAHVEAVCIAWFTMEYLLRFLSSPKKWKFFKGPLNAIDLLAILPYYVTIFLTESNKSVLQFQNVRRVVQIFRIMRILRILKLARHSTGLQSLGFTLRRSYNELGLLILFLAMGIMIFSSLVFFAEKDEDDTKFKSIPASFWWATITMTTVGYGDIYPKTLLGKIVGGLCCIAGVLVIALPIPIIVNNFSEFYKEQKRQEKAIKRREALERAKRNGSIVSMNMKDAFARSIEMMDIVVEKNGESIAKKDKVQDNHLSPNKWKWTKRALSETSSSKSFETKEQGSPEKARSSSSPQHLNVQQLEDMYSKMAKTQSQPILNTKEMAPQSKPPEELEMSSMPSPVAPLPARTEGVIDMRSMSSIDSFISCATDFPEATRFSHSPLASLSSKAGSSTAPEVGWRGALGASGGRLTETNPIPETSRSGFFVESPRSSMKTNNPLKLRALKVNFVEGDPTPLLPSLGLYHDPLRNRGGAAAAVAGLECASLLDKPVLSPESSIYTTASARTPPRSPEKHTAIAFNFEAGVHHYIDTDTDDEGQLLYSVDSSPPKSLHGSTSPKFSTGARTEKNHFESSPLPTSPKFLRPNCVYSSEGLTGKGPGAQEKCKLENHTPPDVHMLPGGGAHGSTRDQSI
# Source text: The ion channel subunit genes are in expression vectors that facilitate in vitro transcription of channel cRNA using the Ambion mMessage mMachine in vitro transcription kit. cDNA constructs are column-purified, linearized with the appropriate restriction enzyme that cuts a single site following the polyA tail, then purified by precipitation and transcribed in vitro using a promoter, such as T7, T3 and SP6. Transcribed cRNA is purified by precipitation and resuspended in RNAse-free water ready for injection. Each transcription can provide enough cRNA for several months of experiments.
# Stage V-VI Xenopus oocytes are separated into small groups using forceps, defolliculated by agitation in Ca^2+-free Ringer solution containing collagenase for one hour, washed, then stored at 15° C. in full Ringers solution before injection. cRNA sufficient to give 1-10 μA of current at physiological voltages for each channel type is injected into Xenopus oocytes (selected by appearance for overall health and uniformity of color) using a Sutter manual injector (typically 0.1-5 ng cRNA in a volume of 25-50 nl). The oocytes are then stored for 1-3 days at 15° C. before TEVC recording. Beta subunit cRNA is co-injected as appropriate, typically 2 ng per oocyte.
# Whole cell oocyte experiments are performed using a Warner OC-725C amplifier and pClamp9 software with oocytes bathed in a small-volume Warner oocyte bath and viewed with a Fisher dissection microscope. Bath solution for whole cell oocyte recordings, e.g., for potassium channel analysis, is generally (in mM): 96 NaCl, 4 KCl, 1 MgCl2, 0.3 CaCl2, 10 HEPES (Ph 7.4); whole-cell oocyte TEVC pipettes are filled with 3 M KCl. Oocyte patches are studies using an Axon Instruments small-volume bath, viewed with an Olympus IX50 inverted microscope, and recordings made using an Axon Multiclamp 700 A Amplifier and pCLAMP9 software (Axon Instruments). Extracellular solution, e.g., for potassium channel analysis, is generally (in mM): 135 NaCl, 5 KCl, 1.2 MgCl2, 5 HEPES, 2.5 CaCl2, 10 D-glucose (Ph 7.4). Intracellular solution, e.g., for potassium channel analysis, is generally (in mM): 10 NaCl, 117 KCl, 2 MgCl2, 11 HEPES, 11 EGTA, ICaCl2 (Ph 7.2). Patch pipettes are approximately 3-5 MΩ resistance when filled with recording solution.
# Quantitative aspects of ion action on ion channels are compared using standard pulse protocols. Pulse times and voltages will vary according to which currents are being studied. […] Drug inhibition constants are calculated after generating a dose response curve by fitting with a logistic dose-response function (see equation (i) below). Typically, 5-20 cells per group are recorded from for heterologous expression experiments. Values are to be stated as mean±SEM with statistical significance set at p<0.05 (unpaired students t-test, ANOVA or the Mann-Whitney Rank Sum Test as appropriate).
# Injected oocytes, bathed in bath solution containing 4 mM KCl, unless otherwise stated, are impaled with current and voltage electrodes and clamped at −80 mV holding potential using a Warner OC-725C amplifier. […] Drug concentrations are chosen to ensure inhibition values between 0 and 90-100% with at least 3 values within the linear portion of the curve so that the inhibition constant (Ki) can be calculated accurately by fitting with a logistic dose-response function (formula (i)) using the Origin 6.1 graph package.
# Kv2.1 mutants were constructed using the QuickChange Multi Site-Directed Mutagenesis Kit (Stratagene, La Jolla, Calif.). […] For oocyte expression, Kv3.4 was in pBF1, Kv4.2 was in pRAT. cRNA transcripts were produced from SacII-linearized (Kv2.1), Mlullinearized (Kv3.4) and Not1-linearized (Kv4.2) DNA templates using the T3 (Kv2.1), SP6 (Kv3.4) and T7 (Kv4.2) mMessage mMachine kits (Ambion, Austin, Tex.). cRNA was quantified by spectrophotometry and its size integrity verified by gel electophoresis.
# [2] = target: T2, Kv3.4 (UniProt Q63734); test: TEVC of X. laevis oocytes expressing Kv3.4; type: cell-based; conditions: 1 mM, bath applied
# T2 construct: IC50; other: Kv3.4, logistic dose response fit; effect on Kv3.4 currents; other: 1 mM, bath applied; slope of dose response curve; other: Kv3.4
# T2 sequence (Q63734 1-625): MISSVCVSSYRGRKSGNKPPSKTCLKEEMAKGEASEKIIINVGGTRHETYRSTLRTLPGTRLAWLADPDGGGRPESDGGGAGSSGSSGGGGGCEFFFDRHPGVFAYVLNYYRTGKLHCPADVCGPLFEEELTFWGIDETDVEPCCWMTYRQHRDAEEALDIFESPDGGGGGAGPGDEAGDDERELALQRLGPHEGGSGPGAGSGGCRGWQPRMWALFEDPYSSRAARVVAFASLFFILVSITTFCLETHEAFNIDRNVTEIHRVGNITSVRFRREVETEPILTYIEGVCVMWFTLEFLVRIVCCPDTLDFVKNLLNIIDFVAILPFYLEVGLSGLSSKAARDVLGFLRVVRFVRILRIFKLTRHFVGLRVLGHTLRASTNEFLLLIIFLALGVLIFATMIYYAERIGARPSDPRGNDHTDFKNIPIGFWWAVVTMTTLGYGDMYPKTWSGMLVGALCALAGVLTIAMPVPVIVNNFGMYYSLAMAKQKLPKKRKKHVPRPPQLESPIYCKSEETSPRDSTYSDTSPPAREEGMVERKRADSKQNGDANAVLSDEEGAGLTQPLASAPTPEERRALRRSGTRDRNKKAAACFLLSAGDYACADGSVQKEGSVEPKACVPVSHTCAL
# Source text: Kv2.1 mutants were constructed using the QuickChange Multi Site-Directed Mutagenesis Kit (Stratagene, La Jolla, Calif.). […] For oocyte expression, Kv3.4 was in pBF1, Kv4.2 was in pRAT. cRNA transcripts were produced from SacII-linearized (Kv2.1), Mlullinearized (Kv3.4) and Not1-linearized (Kv4.2) DNA templates using the T3 (Kv2.1), SP6 (Kv3.4) and T7 (Kv4.2) mMessage mMachine kits (Ambion, Austin, Tex.). cRNA was quantified by spectrophotometry and its size integrity verified by gel electophoresis. Defolliculated stage V and VI Xenopus laevis oocytes (purchased from Nasco, Grand Island, N.Y.) were injected with 5 ng of cRNA encoding Kv2.1, Kv3.4 or Kv4.2. Chinese Hamster Ovary (CHO) cells were transfected with 0.25 μg Kv2.1 cDNA, 2 μg blank plasmid and 2 μg Green fluorescent Protein in pBOB using Supetfect transfection reagent (Qiagen) 24 hours before whole-cell voltage clamp studies.
# Oocytes were bathed in a small-volume Warner oocyte bath and viewed with a Fisher dissection microscope. Bath solution for whole-cell oocyte recordings was (in mM): 96 NaCl, 4 KCl, 0.7 MgCl2, 1 CaCl2, 10 HEPES (pH 7.4); whole-cell oocyte TEVC pipettes were of 0.2-2 M resistance when filled with 3 M KCl. Experiments were performed 24-48 hours after cRNA injection. For assessment of current-voltage relationships in the absence or presence of dabco derivatives, oocytes were held at −80 mV, stepped for 2 seconds at voltages between −80 mV and +60 mV in 20 mV steps (Kv2.1) or between −80 and +50 mV in 10 mV steps (Kv3.4), then held for 500 ms at −40 mV before returning to the holding potential. For assessment of block during wash-in of dabco derivatives at a single voltage, oocytes were held at −80 mV, and repetitively stepped to 0 mV for 2 s with an interpulse interval of 10 s or 60 s as indicated. A range of concentrations of dabco or dabco derivatives were washed in via the bath solution during repetitive single-voltage pulses (after an initial period of 5 pulses with control solution to ensure current stabilization) until equilibrium block was achieved, to establish dose-responses. […] Washout was performed after the highest concentration of blocker was washed in. In cases where washout was achieved, only those recordings in which current returned to within 10% of original current level were used for construction of dose-response curves. […] As controls for this protection analysis, JC638.2a or MTSET were washed in alone until equilibrium block, then washed out.
# Data analysis: Current-voltage relationships were obtained by measuring peak current during depolarizing pulses. Inhibition constants for DABCO blockers were calculated after generating a dose response curve by fitting with a logistic dose-response function y=A2+[A1−A2/1+(x/x0)^p], where A1 is the maximum response plateau, A2 is the minimum response plateau, x is drug concentrator, x0 is the IC50, and p the Hill slope. Data analysis was performed using […] 9 (Axon Instruments, Foster City, Calif.) and tabulated in Excel 5.0. Graphs were generated using Origin 6.1. Data are expressed as mean±SEM, with n specifying the number of independent experiments. Statistical significance was assessed by one-way ANOVA with p<0.05 being indicative of significance.
SMILES,effect on Kv2.1 currents [1],effect on Kv3.4 currents [2],"effect on Kv2.1 current during wash-in ([1]; 250 μM TG28, 0 mV)","Kv2.1 current level after washout relative to pre-drug current ([1]; 250 μM TG28 washed out, on average)"
"C1CN2CCN1CC2 [DABCO, 1,4-diazabicyclo[2.2.2]octane, reference compound]",no effects,no effects,,
"C(CCCCCC[N+]12CCN(CC1)CC2)CCCCC[N+]12CCN(CC1)CC2 [TG28, 1,12-[bis(4-aza-1-azoniabicyclo[2.2.2]octanyl)]dodecane]",block,,"rapid reduction of current (block) followed by slow, partial restoration of current (partial opening)",two-fold larger than the pre-drug current
